Test results from the CheMixHub viscosity set.

Assay: xn = mol fraction of the nth substance listed
Conditions: 101.33 kPa

CC(N)CN (stereo not given) + OCCCCO
viscosity [mPa·s]
Conditions | 293.15 K | 298.15 K | 303.15 K | 308.15 K | 313.15 K | 318.15 K
x2 = 0.0415 | 2.17 | 1.92 | 1.66 | 1.48 | 1.3 | 1.21
x2 = 0.0837 | 2.83 | 2.5 | 2.1 | 1.86 | 1.63 | 1.54
x2 = 0.1267 | 3.76 | 3.28 | 2.72 | 2.37 | 2.07 | 1.91
x2 = 0.1705 | 5.08 | 4.37 | 3.59 | 3.08 | 2.65 | 2.44
x2 = 0.2152 | 6.86 | 5.84 | 4.71 | 4.02 | 3.41 | 3.11
x2 = 0.2606 | 8.9 | 7.88 | 6.27 | 5.26 | 4.42 | –
x2 = 0.3069 | 13.32 | 10.91 | 8.54 | 7.05 | 5.85 | –
x2 = 0.3541 | 18.39 | 14.82 | 11.39 | 9.32 | 7.62 | –
x2 = 0.4022 | 25.44 | 20.09 | 15.23 | 12.31 | 9.87 | –
x2 = 0.4513 | 34.76 | 27.12 | 20.33 | 16.17 | 13.1 | –
x2 = 0.5013 | 47.13 | 36.26 | 26.83 | 21.01 | 16.42 | –
x2 = 0.5523 | 61.72 | 47.01 | 34.44 | 26.7 | 20.75 | –
x2 = 0.6043 | 75.89 | 57.65 | 42 | 32.37 | 25.02 | –
x2 = 0.6574 | 90.68 | 69.04 | 50.16 | 38.64 | 29.82 | –
x2 = 0.7116 | 99.83 | 76.3 | 55.75 | 42.89 | 33.12 | –
x2 = 0.7669 | 106 | 81.64 | 60.1 | 46.57 | 36.08 | –
x2 = 0.8233 | 107.2 | 83.62 | 61.98 | 48.39 | 37.8 | –
x2 = 0.881 | 104.3 | 82.14 | 61.43 | 48.46 | 38.15 | –
x2 = 0.9399 | 98.79 | 78.35 | 59.29 | 47.22 | 37.43 | –
